The values below are quoted from earlier work in patent publication US20190282513A1, “COMPOUND FOR USE IN RELIEF OF PAIN AND METHOD TO PRODUCE THEREOF” (priority 2018, published 2019).

The conditions of data set [1]: taken orally.
The conditions of data set [2]: compared with ibuprofen.

In the case of `C=C(C)[C@@H]1CCC(C)=C[C@H]1c1c(O)cc(CCCCC)cc1O` [CBD, cannabidiol], the “anti-inflammatory analgesic effect in cancer-related pain” value is “effective anti-inflammatory analgesic”. The “treatment of chronic pain” value in data set [1] is given as “effectively treated chronic pain”.
`C/C=C(/C=O)[C@@H](CC=O)CC(=O)OCCc1ccc(O)cc1` [oleocanthal]: the anti-inflammatory properties result in data set [2] is given as “anti-inflammatory properties similar to ibuprofen”.
